Tested on: RA patients
Assay: Atherogenic index, Study 1 (RA patients, add-on to MTX)
Format: in vivo, human
Conditions: for Atherogenic index Mean CFB - 24 weeks results / Atherogenic index Mean percentage CFB - 24 weeks results / Atherogenic index Median CFB - 24 weeks results: 200 mg q.d. continued over 24 weeks
Description: As used herein, the term ‘atherogenic index’ refers to
Double-blind, placebo-controlled add on study in subjects with moderately to severely active RA who have an inadequate response to methotrexate (MTX) (oral or parenteral).
Compound 1 (dosed as a [Compound 1:HCl:3H2O]) is dosed for twelve weeks once daily (q.d.) (50 mg, 100 mg or 200 mg) or twice daily (b.i.d.) (25 mg, 50 mg or 100 mg); or placebo.
At Week 12, the subjects on placebo who have not achieved 20% improvement in swollen joint count (SJC66) and tender joint count (TJC68) are re-randomized automatically to receive Compound 1 (dosed as a [Compound 1:HCl:3H2O]) either at 100 mg q.d. or 50 mg b.i.d. doses in a blinded fashion; subjects on 50 mg q.d. who have not achieved 20% improvement in SJC66 and TJC68 will be assigned to 100 mg q.d. and subjects on 25 mg b.i.d. that have not achieved a 20% improvement in SJC66 and TJC68 will be assigned to 50 mg b.i.d. Subjects who switch treatment at week 12 are handled as if they discontinued at week 12 for the purpose of statistical analysis, whereas subjects in the other groups will maintain their randomized treatment until Week 24.
The atherogenic index has been identified to be a good predictor of cardiovascular disorders risks and is calculated as follows: […]

[1] = 2 × 25 mg (b.i.d. group), week 1
[2] = 2 × 25 mg (b.i.d. group), week 2
[3] = 2 × 25 mg (b.i.d. group), week 4
[4] = 2 × 25 mg (b.i.d. group), week 8
[5] = 2 × 25 mg (b.i.d. group), week 12
[6] = 2 × 50 mg (b.i.d. group), week 1
[7] = 2 × 50 mg (b.i.d. group), week 2
[8] = 2 × 50 mg (b.i.d. group), week 4
[9] = 2 × 50 mg (b.i.d. group), week 8
[10] = 2 × 50 mg (b.i.d. group), week 12
[11] = 2 × 100 mg (b.i.d. group), week 1

SMILES: O=C(Nc1nc2cccc(-c3ccc(CN4CCS(=O)(=O)CC4)cc3)n2n1)C1CC1 [Compound 1, cyclopropanecarboxylic acid {5-[4-(1,1-dioxo-thiomorpholin-4-ylmethyl)-phenyl]-[1,2,4]triazolo[1,5-a]pyridin-2yl}-amide]
- Atherogenic index Median CFB - 12 weeks results (100 mg q.d., week 12): -0.10 mmol/L
- Atherogenic index Mean CFB - 24 weeks results (week 1): -0.17 mmol/L
- Atherogenic index Mean percentage CFB - 24 weeks results (week 1): −2.63%
- Atherogenic index Median CFB - 24 weeks results (week 1): -0.10 mmol/L
- Atherogenic index Mean CFB - 24 weeks results (week 2): -0.35 mmol/L
- Atherogenic index Mean percentage CFB - 24 weeks results (week 2): −7.45%
- Atherogenic index Median CFB - 24 weeks results (week 2): -0.25 mmol/L
- Atherogenic index Mean CFB - 24 weeks results (week 4): -0.37 mmol/L
- Atherogenic index Mean percentage CFB - 24 weeks results (week 4): −7.97%
- Atherogenic index Median CFB - 24 weeks results (week 4): -0.30 mmol/L
- Atherogenic index Mean CFB - 24 weeks results (week 8): -0.36 mmol/L
- Atherogenic index Mean percentage CFB - 24 weeks results (week 8): −7.92%
- Atherogenic index Median CFB - 24 weeks results (week 8): -0.30 mmol/L
- Atherogenic index Mean CFB - 24 weeks results (week 12): -0.35 mmol/L
- Atherogenic index Mean percentage CFB - 24 weeks results (week 12): −6.85%
- Atherogenic index Median CFB - 24 weeks results (week 12): -0.30 mmol/L
- Atherogenic index Mean CFB - 24 weeks results (week 16): -0.40 mmol/L
- Atherogenic index Mean percentage CFB - 24 weeks results (week 16): −8.14%
- Atherogenic index Median CFB - 24 weeks results (week 16): -0.40 mmol/L
- Atherogenic index Mean CFB - 24 weeks results (week 20): -0.48 mmol/L
- Atherogenic index Mean percentage CFB - 24 weeks results (week 20): −8.84%
- Atherogenic index Median CFB - 24 weeks results (week 20): -0.40 mmol/L
- Atherogenic index Mean CFB - 24 weeks results (week 24): -0.34 mmol/L
- Atherogenic index Mean percentage CFB - 24 weeks results (week 24): −6.14%
- Atherogenic index Median CFB - 24 weeks results (week 24): -0.30 mmol/L
- Atherogenic index Mean CFB (200 mg q.d., week 1): -0.17 mmol/L
- Atherogenic index Mean percentage CFB - 12 weeks results (200 mg q.d., week 1): −3%
- Atherogenic index Median CFB - 12 weeks results (200 mg q.d., week 1): -0.10 mmol/L
- Atherogenic index Mean CFB (200 mg q.d., week 2): -0.35 mmol/L
- Atherogenic index Mean percentage CFB - 12 weeks results (200 mg q.d., week 2): −7%
- Atherogenic index Median CFB - 12 weeks results (200 mg q.d., week 2): -0.25 mmol/L
- Atherogenic index Mean CFB (200 mg q.d., week 4): -0.37 mmol/L
- Atherogenic index Mean percentage CFB - 12 weeks results (200 mg q.d., week 4): −8%
- Atherogenic index Median CFB - 12 weeks results (200 mg q.d., week 4): -0.30 mmol/L
- Atherogenic index Mean CFB (200 mg q.d., week 8): -0.36 mmol/L
- Atherogenic index Mean percentage CFB - 12 weeks results (200 mg q.d., week 8): −8%
- Atherogenic index Median CFB - 12 weeks results (200 mg q.d., week 8): -0.30 mmol/L
- Atherogenic index Mean CFB (200 mg q.d., week 12): -0.35 mmol/L
- Atherogenic index Mean percentage CFB - 12 weeks results (200 mg q.d., week 12): −7%
- Atherogenic index Median CFB - 12 weeks results (200 mg q.d., week 12): -0.30 mmol/L
- Atherogenic index Mean CFB [1]: 0.07 mmol/L
- Atherogenic index Mean percentage CFB - 12 weeks results [1]: 3%
- Atherogenic index Median CFB - 12 weeks results [1]: 0.10 mmol/L
- Atherogenic index Mean CFB [2]: -0.03 mmol/L
- Atherogenic index Mean percentage CFB - 12 weeks results [2]: 0%
- Atherogenic index Median CFB - 12 weeks results [2]: -0.10 mmol/L
- Atherogenic index Mean CFB [3]: -0.04 mmol/L
- Atherogenic index Mean percentage CFB - 12 weeks results [3]: 0%
- Atherogenic index Median CFB - 12 weeks results [3]: 0.00 mmol/L
- Atherogenic index Mean CFB [4]: -0.08 mmol/L
- Atherogenic index Mean percentage CFB - 12 weeks results [4]: −1%
- Atherogenic index Median CFB - 12 weeks results [4]: -0.10 mmol/L
- Atherogenic index Mean CFB [5]: 0.00 mmol/L
- Atherogenic index Mean percentage CFB - 12 weeks results [5]: 2%
- Atherogenic index Median CFB - 12 weeks results [5]: -0.10 mmol/L
- Atherogenic index Mean CFB [6]: -0.06 mmol/L
- Atherogenic index Mean percentage CFB - 12 weeks results [6]: 0%
- Atherogenic index Median CFB - 12 weeks results [6]: 0.00 mmol/L
- Atherogenic index Mean CFB [7]: -0.21 mmol/L
- Atherogenic index Mean percentage CFB - 12 weeks results [7]: −5%
- Atherogenic index Median CFB - 12 weeks results [7]: -0.10 mmol/L
- Atherogenic index Mean CFB [8]: -0.14 mmol/L
- Atherogenic index Mean percentage CFB - 12 weeks results [8]: −3%
- Atherogenic index Median CFB - 12 weeks results [8]: -0.10 mmol/L
- Atherogenic index Mean CFB [9]: -0.18 mmol/L
- Atherogenic index Mean percentage CFB - 12 weeks results [9]: −3%
- Atherogenic index Median CFB - 12 weeks results [9]: -0.10 mmol/L
- Atherogenic index Mean CFB [10]: -0.07 mmol/L
- Atherogenic index Mean percentage CFB - 12 weeks results [10]: −1%
- Atherogenic index Median CFB - 12 weeks results [10]: 0.00 mmol/L
- Atherogenic index Mean CFB [11]: -0.05 mmol/L
- Atherogenic index Mean percentage CFB - 12 weeks results [11]: 0%
- Atherogenic index Median CFB - 12 weeks results [11]: 0.00 mmol/L
- Atherogenic index Mean CFB (2 × 100 mg (b.i.d. group), week 2): -0.19 mmol/L

Reference: US10376520B2, “Methods for the treatment of cardiovascular disorders” (Galapagos NV, priority 2015, dated 2019)
